Source: PubChem BioAssay (NCI)
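Five compound concentrations were applied to cells in 96-well plates for 48 hours; endpoints were derived by simple linear interpolation of the resulting dose-response curve. At the TGI there is no net growth.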

Legend:
Experiment in all cases: inhibition of tumour cell growth, NCI panel, 48 h
T-47D breast = tested on: T-47D breast
NCI-H522 lung = tested on: NCI-H522 lung
DU-145 prostate = tested on: DU-145 prostate
SN12C renal = tested on: SN12C renal
M14 melanoma = tested on: M14 melanoma
SNB-75 CNS = tested on: SNB-75 CNS
NCI-H23 lung = tested on: NCI-H23 lung
A498 renal = tested on: A498 renal
KM12 colon = tested on: KM12 colon
MALME-3M melanoma = tested on: MALME-3M melanoma
MDA-N = tested on: MDA-N
SK-MEL-28 melanoma = tested on: SK-MEL-28 melanoma
HOP-62 NSCLC = tested on: HOP-62 NSCLC
TK-10 renal = tested on: TK-10 renal
LOX IMVI melanoma = tested on: LOX IMVI melanoma
OVCAR-3 ovarian = tested on: OVCAR-3 ovarian
UO-31 renal = tested on: UO-31 renal
MCF7 breast = tested on: MCF7 breast
HCT-116 colon = tested on: HCT-116 colon
HL-60(TB) leukemia = tested on: HL-60(TB) leukemia
SF-268 CNS = tested on: SF-268 CNS
SR leukemia = tested on: SR leukemia
HOP-92 NSCLC = tested on: HOP-92 NSCLC
786-0 renal = tested on: 786-0 renal
SW-620 colon = tested on: SW-620 colon
NCI/ADR-RES ovarian = tested on: NCI/ADR-RES ovarian
MDA-MB-231 breast = tested on: MDA-MB-231 breast
SNB-19 CNS = tested on: SNB-19 CNS
A549 NSCLC = tested on: A549 NSCLC
RPMI-8226 leukemia = tested on: RPMI-8226 leukemia
EKVX NSCLC = tested on: EKVX NSCLC
CAKI-1 renal = tested on: CAKI-1 renal
CCRF-CEM leukemia = tested on: CCRF-CEM leukemia
HT29 colon = tested on: HT29 colon
UACC-62 melanoma = tested on: UACC-62 melanoma
NCI-H226 lung = tested on: NCI-H226 lung
HCC-2998 colon = tested on: HCC-2998 colon
SK-MEL-2 melanoma = tested on: SK-MEL-2 melanoma
SK-OV-3 ovarian = tested on: SK-OV-3 ovarian
OVCAR-8 ovarian = tested on: OVCAR-8 ovarian
IGROV1 ovarian = tested on: IGROV1 ovarian
NCI-H460 lung = tested on: NCI-H460 lung
RXF 393 renal = tested on: RXF 393 renal
K-562 leukemia = tested on: K-562 leukemia
UACC-257 melanoma = tested on: UACC-257 melanoma
COLO 205 colon = tested on: COLO 205 colon
SF-539 CNS = tested on: SF-539 CNS
OVCAR-5 ovarian = tested on: OVCAR-5 ovarian
SK-MEL-5 melanoma = tested on: SK-MEL-5 melanoma
ACHN renal = tested on: ACHN renal
BT-549 breast = tested on: BT-549 breast
U251 CNS = tested on: U251 CNS
SF-295 CNS = tested on: SF-295 CNS
PC-3 prostate = tested on: PC-3 prostate
HCT-15 colon = tested on: HCT-15 colon
MDA-MB-435 = tested on: MDA-MB-435
MOLT-4 leukemia = tested on: MOLT-4 leukemia
OVCAR-4 ovarian = tested on: OVCAR-4 ovarian
HS 578T breast = tested on: HS 578T breast

Measured: TGI

O=[N+]([O-])O
> 100 µM: all assays above
